This is an account of results in publication PMC7523345 (Investigational new drugs, 2018).

One data set in a line: clinical. Also noted: species or system human. To be noted: in vivo.
Data set [1] has as its system human T-ALL xenograft models. To be noted: single agent; nonclinical; cited from earlier work.
For data set [2] the following is noted: in vivo; cited from earlier work.
The target in data set [3] is Notch receptors (Notch1 to 4). To be noted: all 4 mammalian Notch receptors (Notch1 to 4); nonclinical; cited from earlier work.

The half-life is how long it takes for the measured level to halve. In turn, `Cc1cccc2c1NC(=O)[C@@H](NC(=O)[C@H](CCC(F)(F)F)[C@H](CCC(F)(F)F)C(N)=O)N=C2c1cccc(F)c1` [BMS-986115] came in with a half-life in “clinical” (human) of 17.2 to 28 h. Moreover, the “median accumulation ratio (AUCtau ratio of Day 15/Day 1)” value in “clinical” (human, 0.3 mg) is 2.64; in the data set “clinical” (human, 0.6 mg), 3.9; in “clinical” (human, 1.2 mg), 3.66; in “clinical” (human, 1.5 mg), 2.33; in “clinical” (human, 2 mg) it was 2.19. The “Accumulation ratio (AUCtau ratio of Day 16/Day 1)” value is recorded as 2.47 in the data set “clinical” (human, 2 mg); 3.01 in the data set “clinical” (human, 4 mg); 2.77 in “clinical” (human, 8 mg). Further, the “Exposure, dose relation” value in “clinical” was “dose related increase”. For the same compound, the “Efficacy in human T-ALL xenograft models” value in data set [1] was “effective as a single agent”. In addition, in data set [2], the “Main pharmacological toxicities in animal studies” value is “dose-dependent gastrointestinal (GI) toxicity, lymphoid depletion, and interruption of ovarian follicle maturation”. In addition, the “median inhibitory concentrations (IC50s)” value in data set [3] is “low nanomolar”.
